pIC50: −log10 of the molar value.
Molecular target: LSD1 (Homo sapiens (Human), UniProt O60341)
Assay: biochemical
Description: After stopping the reactions plates were incubated for 30 minutes and read on a PHERAstar FS plate reader (BMG Labtech).

COc1ccc(CC2(CN[C@@H]3C[C@H]3c3ccccc3)CCN(CC3(C(=O)O)CC3)CC2)cn1 [Example 69, 1-{[4-[(6-methoxypyridin-3-yl)methyl]-4-({[(1R,2S)-2-phenylcyclopropyl]amino}methyl)piperidin-1-yl]methyl}cyclopropanecarboxylic acid] was tested, and the pIC50 was > 7.00.
